Patent US20240246967A1, “AXL COMPOUNDS” (ARCUS BIOSCIENCES, INC., priority 2021, published 2024)

Experiments:
Axl [1] = target: T1, Axl (Homo sapiens, UniProt P30530); assay: HTRF KinEASE-TK biochemical potency assay, AXL; parameters: purchased Invitrogen; conditions: 5 nM AXL, 700 μM ATP, 800 nM TK Substrate-biotin
T1 sequence (P30530 26-894): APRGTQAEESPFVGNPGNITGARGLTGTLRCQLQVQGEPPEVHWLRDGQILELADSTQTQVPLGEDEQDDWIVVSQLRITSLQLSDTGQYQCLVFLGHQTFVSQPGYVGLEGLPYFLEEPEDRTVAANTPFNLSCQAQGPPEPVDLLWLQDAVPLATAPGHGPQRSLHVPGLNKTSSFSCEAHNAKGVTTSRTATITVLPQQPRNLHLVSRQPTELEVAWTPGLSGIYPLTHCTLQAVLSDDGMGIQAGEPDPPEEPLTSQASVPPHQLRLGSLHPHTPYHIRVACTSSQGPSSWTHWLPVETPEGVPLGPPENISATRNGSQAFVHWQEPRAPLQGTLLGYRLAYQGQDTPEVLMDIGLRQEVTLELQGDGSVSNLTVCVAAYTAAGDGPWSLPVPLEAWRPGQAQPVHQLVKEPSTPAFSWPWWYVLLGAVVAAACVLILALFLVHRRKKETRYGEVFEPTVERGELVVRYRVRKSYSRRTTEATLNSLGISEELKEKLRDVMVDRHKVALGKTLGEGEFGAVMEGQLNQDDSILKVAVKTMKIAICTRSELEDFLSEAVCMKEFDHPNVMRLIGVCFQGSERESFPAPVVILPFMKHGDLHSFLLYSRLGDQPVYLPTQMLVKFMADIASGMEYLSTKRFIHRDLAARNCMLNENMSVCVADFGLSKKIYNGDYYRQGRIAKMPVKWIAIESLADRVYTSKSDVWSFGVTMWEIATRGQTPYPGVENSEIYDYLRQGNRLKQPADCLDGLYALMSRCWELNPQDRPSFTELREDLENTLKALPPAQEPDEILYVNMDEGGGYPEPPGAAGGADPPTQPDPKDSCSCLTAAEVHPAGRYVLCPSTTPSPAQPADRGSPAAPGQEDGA
Outline: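 Recombinant human kinase preincubated 1 h at RT with compound, then reacted 2 h at RT with final 5 nM AXL or 1 nM TYRO3/MER, 800 nM TK Substrate-biotin and 700 μM ATP in HEPES pH 7.4, 10 mM MgCl2, 1% DMSO. Phosphorylation read by HTRF 665/620 ratio, expressed as percent activity.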

Axl [2] = target: T1, Axl; assay: Axl NanoBRET intracellular kinase assay (intracellular binding, Cell Binding); parameters: host or cells: HEK-293; conditions: HEK-293 cells transfected with Axl-NanoLuc fusion vector; 0.35 μM K-5 NanoBRET tracer
Outline: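 HEK-293 cells transiently expressing Axl-NanoLuc fusion were pre-incubated with compound for 1 h at 37 °C (0.5% DMSO), then with 0.35 μM K-5 tracer for 2 h. Tracer displacement read as reduced BRET ratio (610/450 nm); IC50 from 4-parameter fit.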

| IC50 (Axl [1]) [nM] | IC50 (Axl [2]) [nM] | Structure (SMILES) |
| --- | --- | --- |
| < 100 | < 100 | NC(=O)c1ccc(-c2n[nH]c3ncc(-c4ccc5c(c4)CC[C@@H](N4CCCC4)CC5)cc23)cc1Cl [Example 84, (S)-2-Chloro-4-(5-(7-(pyrrolidin-1-yl)-6,7,8,9-tetrahydro-5H-benzo[7]annulen-2-yl)-1H-pyrazolo[3,4-b]pyridin-3-yl)benzamide] |
| < 100 | < 100 | C[C@@H]1CCCN1C1(C)CCc2ccc(-c3cnc4[nH]nc(-c5ccc(C(=O)NC6CCOCC6)cc5)c4c3)cc2CC1 (stereo partly drawn) [Example 88, 4-(5-(7-Methyl-7-((R)-2-methylpyrrolidin-1-yl)-6,7,8,9-tetrahydro-5H-benzo[7]annulen-2-yl)-1H-pyrazolo[3,4-b]pyridin-3-yl)-N-(tetrahydro-2H-pyran-4-yl)benzamide] |
| < 100 | < 100 | NS(=O)(=O)c1ccc(-c2n[nH]c3ncc(-c4ccc5c(c4)CC[C@@H](N4CCCC4)CC5)cc23)cc1Cl [Example 91, (S)-2-Chloro-4-(5-(7-(pyrrolidin-1-yl)-6,7,8,9-tetrahydro-5H-benzo[7]annulen-2-yl)-1H-pyrazolo[3,4-b]pyridin-3-yl)benzenesulfonamide] |
| < 100 | < 100 | C[C@@H]1CCCN1C1(C)CCc2ccc(-c3cnc4[nH]nc(-c5ccc(S(N)(=O)=O)c(Cl)c5)c4c3)cc2CC1 (stereo partly drawn) [Example 93, 2-Chloro-4-(5-(7-methyl-7-((R)-2-methylpyrrolidin-1-yl)-6,7,8,9-tetrahydro-5H-benzo[7]annulen-2-yl)-1H-pyrazolo[3,4-b]pyridin-3-yl)benzenesulfonamide] |

More lines, now with the values behind:

| Structure (SMILES) | IC50 (Axl [1]) [nM] | IC50 (Axl [2]) [nM] |
| --- | --- | --- |
| O=C(c1ccc(-c2n[nH]c3ncc(-c4ccc5c(c4)CC[C@@H](N4CCCC4)CC5)cc23)cc1Cl)N1CCNCC1 [Example 82, (S)-(2-Chloro-4-(5-(7-(pyrrolidin-1-yl)-6,7,8,9-tetrahydro-5H-benzo[7]annulen-2-yl)-1H-pyrazolo[3,4-b]pyridin-3-yl)phenyl)(piperazin-1-yl)methanone] | < 100 | < 100 |
| Cc1cc(-c2n[nH]c3ncc(-c4ccc5c(c4)CC[C@@H](N4CCCC4)CC5)cc23)cc(F)c1C(N)=O [Example 83, (S)-2-Fluoro-6-methyl-4-(5-(7-(pyrrolidin-1-yl)-6,7,8,9-tetrahydro-5H-benzo[7]annulen-2-yl)-1H-pyrazolo[3,4-b]pyridin-3-yl)benzamide] | < 100 | < 100 |
| O=C(c1ccc(-c2n[nH]c3ncc(-c4ccc5c(c4)CC[C@@H](N4CCCC4)CC5)cc23)cc1Cl)N1CCC(O)CC1 [Example 85, (S)-(2-Chloro-4-(5-(7-(pyrrolidin-1-yl)-6,7,8,9-tetrahydro-5H-benzo[7]annulen-2-yl)-1H-pyrazolo[3,4-b]pyridin-3-yl)phenyl)(4-hydroxypiperidin-1-yl)methanone] | < 100 | < 100 |
| COc1cc(-c2n[nH]c3ncc(-c4ccc5c(c4)CCC(C)(N4CCC[C@H]4C)CC5)cc23)ccc1S(N)(=O)=O (stereo partly drawn) [Example 87, 2-Methoxy-4-(5-(7-methyl-7-((R)-2-methylpyrrolidin-1-yl)-6,7,8,9-tetrahydro-5H-benzo[7]annulen-2-yl)-1H-pyrazolo[3,4-b]pyridin-3-yl)benzenesulfonamide] | < 100 | 100 to 1000 |
| COC1CCN(C(=O)c2ccc(-c3n[nH]c4ncc(-c5ccc6c(c5)CCC(C)(N5CCC[C@H]5C)CC6)cc34)cc2)CC1 (stereo partly drawn) [Example 89, (4-Methoxypiperidin-1-yl)(4-(5-(7-methyl-7-((R)-2-methylpyrrolidin-1-yl)-6,7,8,9-tetrahydro-5H-benzo[7]annulen-2-yl)-1H-pyrazolo[3,4-b]pyridin-3-yl)phenyl)methanone] | < 100 | < 100 |
| Cc1cc2c(cc1-c1cnc3[nH]nc(-c4ccc(C(C)(C)O)c(Cl)c4)c3c1)CCC(N1CCC[C@H]1C)CC2 (stereo partly drawn) [Example 90, 2-[2-Chloro-4-(5-{3-methyl-7-[(2R)-2-methylpyrrolidin-1-yl]-6,7,8,9-tetrahydro-5H-benzo[7]annulen-2-yl}-1H-pyrazolo[3,4-b]pyridin-3-yl)phenyl]propan-2-ol] | < 100 | 100 to 1000 |
| NS(=O)(=O)c1ccc(-c2n[nH]c3ncc(-c4ccc5c(c4)CCN(C4CCCC4)CC5)cc23)cc1Cl [Example 92, 2-Chloro-4-(5-(3-cyclopentyl-2,3,4,5-tetrahydro-1H-benzo[d]azepin-7-yl)-1H-pyrazolo[3,4-b]pyridin-3-yl)benzenesulfonamide] | < 100 | 100 to 1000 |
